Drawing on PubChem BioAssay (NCI), this text covers GI50 and TGI for nine molecules.

Where “and” joins values, the source holds several entries; their conditions need not be identical. Identical values can stand only once.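 Growth conditions: 96-well plates. Treatment: test compound, 48 hours, 5 concentrations. Analysis: linear interpolation between bracketing concentrations; unreached endpoints set to highest concentration. Abbreviation: GI50, concentration required for 50% inhibition of growth. TGI is the concentration that stops growth completely.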

Some test systems named below: A549 NSCLC; EKVX NSCLC; HT29 colon; IGROV1 ovarian; LOX IMVI melanoma; M14 melanoma; NCI-H460 lung; NCI-H522 lung; OVCAR-5 ovarian; PC-3 prostate.
Assay in all cases: DTP human tumour cell line panel, 48 h

Take `Fc1ccc(-c2ncn(C3CCNCC3)c2-c2ccnc(Oc3ccc(Cl)cc3)n2)cc1`: the GI50 – broadly, the concentration giving 50% growth inhibition – is 5.23 µM with A549 NSCLC; 6 µM in the experiment on EKVX NSCLC; 3.25 µM in the experiment with HT29 colon; 4.62 µM with IGROV1 ovarian; 4.16 µM with LOX IMVI melanoma; 4.65 µM in the experiment on M14 melanoma. For the same molecule, the GI50 was 3.79 µM with NCI-H460 lung, 4.49 µM with NCI-H522 lung, 5.09 µM with OVCAR-5 ovarian and 6.31 µM in the experiment with PC-3 prostate. The total growth inhibition concentration (TGI) (commonly the concentration giving total growth inhibition) was 12.8 µM with A549 NSCLC; more than 21.3 µM with EKVX NSCLC; 6.68 µM with HT29 colon; 13.3 µM in the experiment with IGROV1 ovarian; 8.29 µM in the experiment on LOX IMVI melanoma; 9.09 µM with M14 melanoma. Also, the concentration for total growth inhibition (TGI) in the experiment with NCI-H460 lung was 7.49 µM; with NCI-H522 lung it was 9.34 µM; with OVCAR-5 ovarian, 14.9 µM; with PC-3 prostate, more than 15.9 µM.
`CCCCC[C@H]1C/C=C2/C(=O)C=C[C@@H]2C/C=C\CCCC(=O)O1`: the 50% growth inhibitory concentration (GI50) was 0.115 µM in the experiment with A549 NSCLC; 0.172 µM in the experiment on EKVX NSCLC; 0.128 µM with HT29 colon; 0.209 µM with IGROV1 ovarian; 0.0899 µM in the experiment with LOX IMVI melanoma; 0.163 µM with M14 melanoma. For the same molecule, the GI50 in the experiment with NCI-H460 lung was 0.156 µM; in the experiment on NCI-H522 lung, 0.0936 µM; in the experiment with OVCAR-5 ovarian, 0.221 µM; in the experiment on PC-3 prostate it was 0.165 µM. Also, the TGI in the experiment with A549 NSCLC stood at 0.313 µM; in the experiment on EKVX NSCLC it was 1.97 µM; in the experiment on HT29 colon, 0.278 µM; with IGROV1 ovarian, 1.43 µM; with LOX IMVI melanoma it was 0.18 µM; with M14 melanoma it was 5.1 µM. For the same molecule, the TGI came out at 5.38 µM in the experiment with NCI-H460 lung, 0.236 µM in the experiment with NCI-H522 lung, 2.73 µM in the experiment with OVCAR-5 ovarian and 0.844 µM in the experiment with PC-3 prostate.
As for `O=S1(=O)CCC2=CC(C(F)(F)F)=CC(C(F)(F)F)=CN21`, the total growth inhibition concentration (TGI) stood at 9.45 µM in the experiment with A549 NSCLC; 9.38 µM in the experiment on EKVX NSCLC; 9.38 µM in the experiment with HT29 colon; 3.66 µM with IGROV1 ovarian; 4.95 µM in the experiment with LOX IMVI melanoma; 2.03 µM in the experiment with M14 melanoma. Also, the total growth inhibition concentration (TGI) in the experiment with NCI-H460 lung came out at 8.01 µM; with NCI-H522 lung, 0.601 µM; with OVCAR-5 ovarian it was 3.93 µM; with PC-3 prostate, 5.91 µM.
As for `Cc1nc(C(=O)OCc2ccccc2)cc(OCc2ccccc2)c1C`, the GI50 with A549 NSCLC is 19.3 µM; in the experiment with EKVX NSCLC, 19.3 µM; with HT29 colon, 13.1 µM; in the experiment with IGROV1 ovarian it was 21.4 µM; with LOX IMVI melanoma it was 17.1 µM; in the experiment on M14 melanoma it was 19.8 µM. In addition, the GI50 in the experiment with NCI-H460 lung was 22.7 µM; in the experiment on NCI-H522 lung, 15.5 µM; in the experiment on OVCAR-5 ovarian, 21.8 µM; in the experiment on PC-3 prostate, 21 µM. The concentration for total growth inhibition (TGI) with A549 NSCLC is 49.4 µM; in the experiment on EKVX NSCLC it was 52.7 µM; in the experiment with HT29 colon it was 29.3 µM; in the experiment with IGROV1 ovarian, 47.7 µM; in the experiment with LOX IMVI melanoma, 36 µM; in the experiment with M14 melanoma, 40.3 µM. Besides, the TGI in the experiment on NCI-H460 lung was 54.5 µM; with NCI-H522 lung, 37 µM; in the experiment on OVCAR-5 ovarian, 51.6 µM; with PC-3 prostate, more than 69.8 µM.
With `CCOC(=O)C(Cc1cc(OC)c(CC(C(=O)OCC)C(=O)OCC)cc1OC)C(=O)OCC`, the concentration for total growth inhibition (TGI) in the experiment with A549 NSCLC, in the experiment on EKVX NSCLC, with HT29 colon, with IGROV1 ovarian, in the experiment on LOX IMVI melanoma and with M14 melanoma was more than 100 µM each time. In addition, the TGI in the experiment on NCI-H460 lung, in the experiment with NCI-H522 lung, in the experiment on OVCAR-5 ovarian and in the experiment on PC-3 prostate was more than 100 µM throughout.
For the molecule `O=C1C=C(NCCc2ccccc2)c2ccccc2C1=O`, the concentration for total growth inhibition (TGI) with A549 NSCLC was found to be 3.79 µM; in the experiment with EKVX NSCLC it was 20.8 µM; in the experiment with HT29 colon, 7.27 µM; in the experiment with IGROV1 ovarian, 21.3 µM; in the experiment with LOX IMVI melanoma, 3.37 µM; with M14 melanoma it was 2.99 µM. Further, the total growth inhibition concentration (TGI) was determined as 3.18 µM in the experiment with NCI-H460 lung, 4.41 µM in the experiment with NCI-H522 lung, 3.39 µM in the experiment with OVCAR-5 ovarian and 26.2 µM in the experiment with PC-3 prostate.
On to `Cc1c(-c2ccc(-c3ccccc3F)cc2)nc2ccc(F)cc2c1C(=O)O`, for which the 50% growth inhibitory concentration (GI50) in the experiment on A549 NSCLC is 0.384 µM and 0.679 µM; in the experiment with EKVX NSCLC, 77 µM and 53.3 µM; with HT29 colon, 0.639 µM and 0.5 µM; with IGROV1 ovarian it was 0.726 µM and 0.654 µM; in the experiment with LOX IMVI melanoma, 0.508 µM; with M14 melanoma, 6.76 µM and 24.4 µM. Moreover, the GI50 in the experiment on NCI-H460 lung is 0.349 µM and 0.5 µM; in the experiment on NCI-H522 lung, 9.89 µM and 67.3 µM; in the experiment with PC-3 prostate it was 0.27 µM and 0.75 µM. In addition, the TGI with A549 NSCLC is 78 µM and 99.3 µM and 149 µM; in the experiment with EKVX NSCLC it was 173 µM and 448 µM; in the experiment with HT29 colon it was 142 µM and 235 µM; in the experiment with IGROV1 ovarian, 64.8 µM and 227 µM; in the experiment with LOX IMVI melanoma it was 31.2 µM and 71.3 µM; in the experiment with M14 melanoma, 111 µM and 219 µM. Besides, the TGI with NCI-H460 lung was 80.9 µM and 174 µM; in the experiment on NCI-H522 lung it was 93.8 µM and 434 µM; in the experiment on OVCAR-5 ovarian, 209 µM and 371 µM; with PC-3 prostate it was 103 µM and 429 µM.
On to `Cc1cc(C)c(-c2c(O)c(Br)c(-c3c(C)cc(C)c(Br)c3C)c(O)c2Br)c(C)c1Br`, for which the GI50 in the experiment with A549 NSCLC is 2.73 µM; in the experiment on EKVX NSCLC it was 1.62 µM; in the experiment on HT29 colon it was 2.34 µM; in the experiment on IGROV1 ovarian it was 3.59 µM; in the experiment with LOX IMVI melanoma it was 1.74 µM; with M14 melanoma, 1.97 µM. In addition, the GI50 in the experiment on NCI-H460 lung was 2.16 µM; in the experiment with NCI-H522 lung, 1.67 µM; in the experiment with OVCAR-5 ovarian it was 2.85 µM; with PC-3 prostate, 1.88 µM. The concentration for total growth inhibition (TGI) with A549 NSCLC was found to be 11.7 µM; in the experiment on EKVX NSCLC, 8.86 µM; in the experiment on HT29 colon, 10.2 µM; in the experiment on IGROV1 ovarian, 13.9 µM; in the experiment with LOX IMVI melanoma, 3.39 µM; with M14 melanoma, 4.71 µM. Besides, the concentration for total growth inhibition (TGI) with NCI-H460 lung came out at 6.5 µM; in the experiment with NCI-H522 lung it was 3.6 µM; in the experiment with OVCAR-5 ovarian it was 9.63 µM; in the experiment on PC-3 prostate, 8.76 µM.
For the molecule `CCOC1=C/C(=N\Nc2ccc([N+](=O)[O-])cc2)CCC1`, the TGI was more than 100 µM in the experiment on A549 NSCLC; more than 100 µM in the experiment with EKVX NSCLC; 67.9 µM in the experiment with HT29 colon; 40.7 µM in the experiment with IGROV1 ovarian; more than 100 µM with LOX IMVI melanoma; more than 100 µM in the experiment on M14 melanoma. Besides, the TGI in the experiment on NCI-H460 lung was more than 100 µM; in the experiment with NCI-H522 lung, 23.4 µM; in the experiment with OVCAR-5 ovarian it was more than 100 µM; in the experiment on PC-3 prostate, more than 100 µM.
